Experimental data reported in patent US11746116B2, “Antibiotic resistance breakers” (KING'S COLLEGE LONDON, priority 2017, dated 2023).

Assays:
Test in all cases: MIC, microdilution broth method
KP13368 = assay type: cell-based; conditions: KP13368; Normal (no PMBN); in µg/mL
M6 = assay type: cell-based; conditions: M6, in µg/mL
Ab17978 = assay type: cell-based; conditions: Ab17978, in µg/mL
PA01 = assay type: cell-based, Pseudomonas aeruginosa; conditions: PA01, in µg/mL
MSSA9144 = assay type: cell-based, Staphylococcus aureus; conditions: MSSA9144; in µg/mL
EMRSA15 = assay type: cell-based, Staphylococcus aureus; conditions: EMRSA15; in µg/mL
EMRSA16 = assay type: cell-based, Staphylococcus aureus; conditions: EMRSA16; in µg/mL
VSE775 = assay type: cell-based, Enterococcus faecalis; conditions: VSE775; in µg/mL
VRE12201 = assay type: cell-based, Enterococcus faecalis; conditions: VRE12201; in µg/mL
VRE12204 = assay type: cell-based, Enterococcus faecium; conditions: VRE12204; in µg/mL
EC12923 = assay type: cell-based; conditions: EC12923; in µg/mL

| Compound | MIC (KP13368) | MIC (M6; Normal (no PMBN)) | MIC (Ab17978; Normal (no PMBN)) | MIC (PA01; Normal (no PMBN)) | MIC (MSSA9144) | MIC (EMRSA15) | MIC (EMRSA16) | MIC (VSE775) | MIC (VRE12201) | MIC (VRE12204) | MIC (EC12923) | MIC (M6; +PMBN) | MIC (Ab17978; +PMBN) | MIC (PA01; +PMBN) |
| --- | --- | --- | --- | --- | --- | --- | --- | --- | --- | --- | --- | --- | --- | --- |
| CCn1cc(C(=O)O)c(=O)c2cc(F)c(N3CCN(Cc4ccccc4)CC3)cc21 [ML-77-047] | 32 | 4 | 1-16 | 32 | 0.25 | 16 | 16-32 | 4 | 2 | 4 |  |  |  |  |
| CCn1cc(C(=O)O)c(=O)c2cc(F)c(N3CCN(Cc4ccc(-c5csnn5)cc4)CC3)cc21 [ML-77-161, 7-(4-(4-(1,2,3-thiadiazol-4-yl)benzyl)piperazin-1-yl)-1-ethyl-6-fluoro-4-oxo-1,4-dihydroquinoline-3-carboxylic acid] | 64 | 4-8 | 2 | 64 | <0.12 | 8 | 16 | 8 | 4 | 16 |  |  |  |  |
| CCn1cc(C(=O)O)c(=O)c2cc(F)c(N3CCN(Cc4ccc(COC)cc4)CC3)cc21 [ML-83-052, 1-ethyl-6-fluoro-7-(4-(4-(methoxymethyl)benzyl)piperazin-1-yl)-4-oxo-1,4-dihydroquinoline-3-carboxylic acid] | 64 | 8-16 | 4 |  | 0.5-1 | 64-128 | 64 | 8-16 | 8 | 16 | 4 |  |  |  |
| CCn1cc(C(=O)O)c(=O)c2cc(F)c(N3CCN(Cc4cccc5c4OCO5)CC3)cc21 [ML-77-035] |  | 8-16 | 2-4 | 64-128 | 0.5 | >32 | >32 | 8 | 4 | 8 |  |  |  |  |
| O=C(O)c1cn(C2CC2)c2cc(N3CCN(Cc4cccc5ccsc45)CC3)c(F)cc2c1=O [ML-77-078] |  | 32 | 4-8 |  | <0.12 | 2 | 2 | 2-4 | 0.5 | 1-2 |  |  |  |  |
| C[C@H]1COc2c(N3CCN(c4ccncc4)CC3)c(F)cc3c(=O)c(C(=O)O)cn1c23 [ML-83-019] |  | 64 | 64 |  | 64 |  |  |  |  |  | 32 |  |  |  |
| CCn1cc(C(=O)O)c(=O)c2cc(F)c(N3CCN(Cc4cc(C)cc(C)c4)CC3)cc21 [ML-77-150, 7-(4-(3,5-dimethylbenzyl)piperazin-1-yl)-1-ethyl-6-fluoro-4-oxo-1,4-dihydroquinoline-3-carboxylic acid] |  | 32-64 | 16 |  | 0.5-1 | 4-8 | 4-8 | 8 | 8 | 4-8 |  |  |  |  |
| CN(C)c1ccc(CN2CCN(c3cc4c(cc3F)c(=O)c(C(=O)O)cn4C3CC3)CC2)cc1 [ML-77-112] |  | 1-2 | 0.5-1 | 8 | 0.0625-0.125 | 8-16 |  | 0.25-1 | 0.125-0.5 | 1 |  |  |  |  |
| COCc1cccc(CN2CCN(c3cc4c(cc3F)c(=O)c(C(=O)O)cn4C3CC3)CC2)c1 [ML-83-036] |  | 8 | 2 |  | 0.5 |  |  | 2-4 | 2-4 | 16 | 4 |  |  |  |
| O=C(O)c1cn(C2CC2)c2cc(N3CCN(Cc4ccc(-c5ccccc5)cc4)CC3)c(F)cc2c1=O [ML-77-133] |  | 1 | 2 | 4 | 1 | 2 | 2 | 2 | 4 | 2 |  |  |  |  |
| CCn1cc(C(=O)O)c(=O)c2cc(F)c(N3CCN(Cc4ccc(CO)cc4)CC3)cc21 [ML-77-148, 1-ethyl-6-fluoro-7-(4-(4-(hydroxymethyl)benzyl)piperazin-1-yl)-4-oxo-1,4-dihydroquinoline-3-carboxylic acid] | 32 | 4 | 2 | 32 | 0.5 | 32 | 32 | 4-8 | 4 | 8 |  |  |  |  |
| O=C(O)c1cn(C2CC2)c2cc(N3CCN(Cc4ccc(S(=O)(=O)NCCc5c[nH]c6ccccc56)cc4)CC3)c(F)cc2c1=O [ML-77-138] |  |  | 64 |  | 0.25-0.5 |  |  |  |  |  |  | 1 | 1 | ≤0.12 |
| Cc1cc(C)cc(CN2CCN(c3cc4c(cc3F)c(=O)c(C(=O)O)cn4C3CC3)CC2)c1 [ML-77-149] |  | 4-8 | 4 | 32 | 0.25 | 4-8 | 8 | 2-4 | 1 | 8 |  |  |  |  |
| O=C(O)c1cn(C2CC2)c2cc(N3CCN(Cc4ccc5ccccc5c4)CC3)c(F)cc2c1=O [ML-77-036] |  | 4-32 | 8 |  | 0.12 | 2 | 2 | 0.5-2 | 0.5 | 2 |  |  |  |  |
| CCn1cc(C(=O)O)c(=O)c2cc(F)c(N3CCN(Cc4cccc5cccnc45)CC3)cc21 [ML-77-053] | 64 | 8 | 4 | 64 | 1 |  |  | 16 | 8 |  |  |  |  |  |
| CCn1cc(C(=O)O)c(=O)c2cc(F)c(N3CCN(Cc4ccc(-n5cccc5)cc4)CC3)cc21 [ML-77-136, 7-(4-(4-(1H-pyrrol-1-yl)benzyl)piperazin-1-yl)-1-ethyl-6-fluoro oxo-1-4-dihydroquinoline-3-carboxylic acid] | 64-128 | 8-32 | 16-32 | 64-128 | 0.25-0.5 | 8 | 8-16 | 4-8 | 4-8 | 4-8 |  |  |  |  |
| Cc1nc(-c2ccc(CN3CCN(c4cc5c(cc4F)c(=O)c(C(=O)O)cn5C4CC4)CC3)cc2)no1 [ML-77-163] |  | 2 | 0.5-1 | 32 | ≤0.12 |  | 32 | 1-2 | 1 |  |  |  |  |  |
| CCn1cc(C(=O)O)c(=O)c2cc(F)c(N3CCN(Cc4ccc(N(C)C)cc4)CC3)cc21 [ML-77-113] | 32 | 4-16 | 2 | 16-32 | 0.125-0.25 | 16-32 | >32 | 4-8 | 2 | 0.25 |  |  |  |  |
| COCc1ccc(CN2CCN(c3cc4c(cc3F)c(=O)c(C(=O)O)cn4C3CC3)CC2)cc1 [ML-83-050] |  | 2 | 1 |  | 0.25 | 16-32 |  | 1-2 | 1 | 16 | 1 |  |  |  |
